# Assay results: patent US20250163104A1, “MACROCYCLIC IMMUNOMODULATORS” (priority 2021, published 2025)
# Where a SMILES comes first, the peptide text is derived from it. Bridges are numbered along the chain shown (N, C = ends). [ ]: non-standard residue; d: D form. The star is where a group is joined. ξ: configuration not given here. Phe(4-(2-Et-4-HO-Ph)) = CCc1cc(O)ccc1-c1ccc(C[C@H](N)C(=O)O)cc1; Phe(3-CF3) = N[C@@H](Cc1cccc(C(F)(F)F)c1)C(=O)O; Ala(morpholin-4-yl) = N[C@@H](CN1CCOCC1)C(=O)O; Phe(4-COOH) = N[C@@H](Cc1ccc(C(=O)O)cc1)C(=O)O; Bip = N[C@@H](Cc1ccc(-c2ccccc2)cc1)C(=O)O; Phe(3-Me) = Cc1cccc(C[C@H](N)C(=O)O)c1; 4Pal = N[C@@H](Cc1ccncc1)C(=O)O; Cha = N[C@@H](CC1CCCCC1)C(=O)O; Cit = NC(=O)NCCC[C@H](N)C(=O)O; Thr(3ξ) = CC(O)[C@H](N)C(=O)O; NMeNle = CCCC[C@H](NC)C(=O)O; Carboxymethyl = O=C(O)C*; Nle = CCCC[C@H](N)C(=O)O; Orn = NCCC[C@H](N)C(=O)O; Dab = NCC[C@H](N)C(=O)O; Dap = NC[C@H](N)C(=O)O; Propargyl = C#CC*
# Molecular target: T1, human PD-1 / PD-L1-Ig binding on Jurkat cell line over-expressing human PD-1 (Jurkat-PD-1) (Homo sapiens, UniProt Q15116)
# T1 construct: expressed in transfected cells; host or cells: Jurkat
# T1 sequence (Q15116 25-288): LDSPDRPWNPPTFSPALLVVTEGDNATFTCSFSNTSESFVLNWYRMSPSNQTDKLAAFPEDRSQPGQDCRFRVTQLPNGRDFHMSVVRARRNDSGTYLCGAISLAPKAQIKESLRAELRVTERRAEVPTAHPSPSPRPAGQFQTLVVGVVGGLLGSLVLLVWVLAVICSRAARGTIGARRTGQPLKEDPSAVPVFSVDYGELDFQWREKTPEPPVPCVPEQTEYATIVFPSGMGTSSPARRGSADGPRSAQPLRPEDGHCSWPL
# Assay: Jurkat-PD-1 Cell Binding High-Content Screening Assay (CBA)
# Format: cell-based
# Details: Jurkat-PD-1 cells, PE-labeled PD-L1-Ig 20 nM final; read-out: Jurkat HPD1_PDL1 IC50
# Summary of the method: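 Compounds were preincubated with Jurkat-hPD-1 cells in DMEM plus 10% fetal calf serum for 2 h at 37° C. Phycoerythrin-labeled PD-L1-Ig (20 nM final) was then added for 1 hour. Cells were fixed in 4% paraformaldehyde with Hoechst 33342, and bound fluorescence was quantified by high-content imaging.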
row,SMILES,IC50 [nM]
1,CC[C@H](C)[C@@H]1NC(=O)[C@H](Cc2ccc(-c3ccccc3)cc2)NC(=O)[C@H](C(C)C)NC(=O)[C@H](Cc2cccc(C)c2)NC(=O)[C@H](CC(=O)O)NC(=O)[C@H](Cc2ccc(C(=O)O)cc2)NC(=O)[C@H](Cc2ccc(OCC(=O)O)cc2)NC(=O)CSC[C@@H](C(N)=O)NC(=O)[C@H]([C@@H](C)O)NC(=O)[C@H](C(C)C)NC(=O)[C@H](CC(C)C)NC(=O)[C@H](CCN)NC(=O)[C@@H](CC(C)C)NC(=O)[C@H](CCCN)NC1=O [Compound 1555] ({CH2CO}-Y(Carboxymethyl)[Phe(4-COOH)]D[Phe(3-Me)]V[Bip]I[Orn][dL][Dab]LVTC-NH2; thioether N-14),43.3
2,CCCC[C@H]1C(=O)N[C@@H](Cc2ccc(OCC(=O)O)cc2)C(=O)N[C@@H](CC(=O)O)C(=O)N[C@@H](Cc2cccc(C)c2)C(=O)N[C@@H](C(C)C)C(=O)N[C@@H](Cc2ccc(-c3ccccc3)cc2)C(=O)N[C@@H](C(C)O)C(=O)N[C@@H](CCCN)C(=O)N[C@H](CC(C)C)C(=O)N[C@@H](CCN)C(=O)N[C@@H](CC2CCCCC2)C(=O)N[C@@H](C(C)C)C(=O)N[C@@H](C(C)O)C(=O)N[C@H](C(=O)N[C@@H](CC(N)=O)C(N)=O)CSCC(=O)N1C (stereo partly drawn) [Compound 2553] ({CH2CO}-[NMeNle]Y(Carboxymethyl)D[Phe(3-Me)]V[Bip][Thr(3ξ)][Orn][dL][Dab][Cha]V[Thr(3ξ)]CN-NH2; thioether N-14),24.6
3,CC(C)C[C@@H]1NC(=O)[C@H](Cc2c[nH]c3ccccc23)NC(=O)[C@H](CC(=O)O)NC(=O)[C@H](Cc2ccncc2)NC(=O)[C@H](CN)NC(=O)CSC[C@@H](C(=O)NCC(N)=O)NC(=O)[C@H](CO)NC(=O)[C@H](C(C)C)NC(=O)[C@H](CC(C)C)NC(=O)[C@H](CC(N)=O)NC(=O)[C@@H](CC(C)C)NC(=O)[C@H](CCN)NC(=O)[C@H](C(C)C)NC(=O)[C@H](Cc2ccc(-c3ccccc3)cc2)NC1=O [Compound 1281] ({CH2CO}-[Dap][4Pal]DWL[Bip]V[Dab][dL]NLVSCG-NH2; thioether N-14),8.9
4,C#CCOc1ccc(C[C@@H]2NC(=O)[C@H](Cc3ccc(-c4ccccc4)cc3)NC(=O)[C@H](Cc3ccc(C(=O)O)cc3)NC(=O)[C@H](Cc3cccc(C)c3)NC(=O)[C@H](CC(=O)O)NC(=O)[C@H](Cc3ccc(C(=O)O)cc3)NC(=O)[C@H]([C@@H](C)O)NC(=O)CSC[C@@H](C(=O)N[C@@H](CCN)C(N)=O)NC(=O)[C@H](CCC(=O)O)NC(=O)[C@H](C(C)C)NC(=O)[C@H](CC3CCCCC3)NC(=O)[C@H](CCN)NC(=O)[C@@H](CC(C)C)NC(=O)[C@H](CCCN)NC2=O)cc1 [Compound 1828] ({CH2CO}-T[Phe(4-COOH)]D[Phe(3-Me)][Phe(4-COOH)][Bip]Y(Propargyl)[Orn][dL][Dab][Cha]VEC[Dab]-NH2; thioether N-14),6.9
5,CC(C)C[C@H]1NC(=O)[C@H](CCCN)NC(=O)[C@H](CCC(=O)O)NC(=O)[C@H](Cc2ccc(-c3ccccc3)cc2)NC(=O)[C@H](C(C)C)NC(=O)[C@H](Cc2cccc(C(F)(F)F)c2)NC(=O)[C@H](CC(=O)O)NC(=O)[C@H](Cc2ccc(OCC(=O)O)cc2)NC(=O)[C@H](Cc2ccc(OCC(=O)O)cc2)NC(=O)CSC[C@@H](C(=O)N[C@@H](C)C(N)=O)NC(=O)[C@H]([C@@H](C)O)NC(=O)[C@H](C(C)C)NC(=O)[C@H](CC2CCCCC2)NC(=O)[C@H](CCN)NC1=O [Compound 1465],27.4
6,Cc1cccc(C[C@@H]2NC(=O)[C@H](CC(=O)O)NC(=O)[C@H](Cc3ccc(C(=O)O)cc3)NC(=O)[C@H](Cc3ccncc3)NC(=O)CSC[C@@H](C(=O)N[C@@H](C)C(N)=O)NC(=O)[C@H]([C@@H](C)O)NC(=O)[C@H](C(C)C)NC(=O)[C@H](CC3CCCCC3)NC(=O)[C@H](CCN)NC(=O)[C@@H](CC(C)C)NC(=O)[C@H](CCCN)NC(=O)[C@H](C3CCCCC3)NC(=O)[C@H](Cc3ccc(-c4ccccc4)cc3)NC(=O)[C@H](C(C)C)NC2=O)c1 [Compound 1614],14.4

# The remaining molecules from weak to strong by IC50, led by results:
row,IC50 [nM],SMILES
1,478,COc1ccc(C[C@@H]2NC(=O)[C@H](CC(=O)O)NC(=O)[C@H](Cc3ccc(OCC(=O)O)cc3)NC(=O)[C@H](CN)NC(=O)CSC[C@@H](C(=O)N[C@@H](C)C(N)=O)NC(=O)[C@H]([C@@H](C)O)NC(=O)[C@H](C(C)C)NC(=O)[C@H](CC3CCCCC3)NC(=O)[C@H](CCN)NC(=O)[C@@H](CC(C)C)NC(=O)[C@H](CCCN)NC(=O)[C@H](CCC(=O)O)NC(=O)[C@H](Cc3ccc(-c4ccccc4)cc3)NC(=O)[C@H](C(C)C)NC2=O)cc1 [Compound 2140] ({CH2CO}-[Dap]Y(Carboxymethyl)DY(Me)V[Bip]E[Orn][dL][Dab][Cha]VTCA-NH2; thioether N-14)
2,48.9,CCCC[C@@H]1NC(=O)[C@H](CCCNC(=N)N)NC(=O)[C@@H](CC(C)C)NC(=O)[C@H](CCCN)NC(=O)[C@H]([C@@H](C)CC)NC(=O)[C@H](Cc2ccc(-c3ccccc3)cc2)NC(=O)[C@H](C(C)C)NC(=O)[C@H](Cc2c[nH]c3ccccc23)NC(=O)[C@H](CC(=O)O)NC(=O)[C@H](Cc2ccc(O)cc2)NC(=O)[C@H](Cc2ccc(OCC(=O)O)cc2)NC(=O)CSC[C@@H](C(=O)N[C@@H](C)C(N)=O)NC(=O)[C@H]([C@@H](C)O)NC(=O)[C@H](C(C)C)NC1=O [Compound 1150] ({CH2CO}-Y(Carboxymethyl)YDWV[Bip]I[Orn][dL]R[Nle]VTCA-NH2; thioether N-14)
3,13.1,Cc1cccc(C[C@@H]2NC(=O)[C@H](CC(=O)O)NC(=O)[C@H](Cc3ccc(C(=O)O)cc3)NC(=O)[C@H](Cc3ccncc3)NC(=O)CSC[C@@H](C(=O)N[C@H](CC(N)=O)C(N)=O)NC(=O)[C@H](CO)NC(=O)[C@H](C(C)C)NC(=O)[C@H](CC3CCCCC3)NC(=O)[C@H](CCN)NC(=O)[C@@H](CC(C)C)NC(=O)[C@H](CCCN)NC(=O)[C@H](Cc3ccc(OCC(=O)O)cc3)NC(=O)[C@H](Cc3ccc(-c4ccccc4)cc3)NC(=O)[C@H](Cc3ccc(OCC(=O)O)cc3)NC2=O)c1 [Compound 2313] ({CH2CO}-[4Pal][Phe(4-COOH)]D[Phe(3-Me)]Y(Carboxymethyl)[Bip]Y(Carboxymethyl)[Orn][dL][Dab][Cha]VSC[dN]-NH2; thioether N-14)
4,9,CC(C)C[C@H]1NC(=O)[C@H](CCCN)NC(=O)[C@H](CCCNC(N)=O)NC(=O)[C@H](Cc2ccc(-c3ccccc3)cc2)NC(=O)[C@H](C(C)C)NC(=O)[C@H](Cc2c[nH]c3ccccc23)NC(=O)[C@H](CC(=O)O)NC(=O)[C@H](Cc2ccc(OCC(=O)O)cc2)NC(=O)[C@H](CN)NC(=O)CSC[C@@H](C(=O)N[C@@H](C)C(N)=O)NC(=O)[C@H]([C@@H](C)O)NC(=O)[C@H](C(C)C)NC(=O)[C@H](CC2CCCCC2)NC(=O)[C@H](Cc2c[nH]cn2)NC1=O [Compound 1590] ({CH2CO}-[Dap]Y(Carboxymethyl)DWV[Bip][Cit][Orn][dL]H[Cha]VTCA-NH2; thioether N-14)
5,2.5,CCc1cc(O)ccc1-c1ccc(C[C@@H]2NC(=O)[C@H](Cc3cccc(C(F)(F)F)c3)NC(=O)[C@H](CC(=O)O)NC(=O)[C@H](Cc3ccc(C(=O)O)cc3)NC(=O)[C@H](CN3CCOCC3)NC(=O)CSC[C@@H](C(=O)N[C@@H](CCN)C(N)=O)NC(=O)[C@H](CCC(=O)O)NC(=O)[C@H](C(C)C)NC(=O)[C@H](CC3CCCCC3)NC(=O)[C@H](CCN)NC(=O)[C@@H](CC(C)C)NC(=O)[C@H](CCCN)NC(=O)[C@H](Cc3ccc(C(=O)O)cc3)NC(=O)[C@H](Cc3ccc(-c4ccccc4)cc3)NC2=O)cc1 [Example 2733] ({CH2CO}-[Ala(morpholin-4-yl)][Phe(4-COOH)]D[Phe(3-CF3)][Phe(4-(2-Et-4-HO-Ph))][Bip][Phe(4-COOH)][Orn][dL][Dab][Cha]VEC[Dab]-NH2; thioether N-14)
